According to US11230683B2 (priority 2020, dated 2022):
Several values for one entry are separate records, joined by “and”; a condition that tells them apart may be missing. Equal entries are not always repeated. Where two headings read alike, the source gives them in different places.

Tests used:
[1] = target: T1, BuChE from equine serum (eqBuChE) (Equus caballus, UniProt P81908); assay: biochemical; type: biochemical
T1 construct: The BuChE freeze-dried from equine serum (eqBuChE, Sigma Aldrich); purchased Sigma Aldrich; host or cells: equine serum

[2] = target: T2, human erythrocyte AChE (hAChE) (Homo sapiens, UniProt P22303); assay: biochemical; type: biochemical
T2 construct: The human erythrocyte AChE (hAChE, aqueous buffer solution); purchased Sigma Aldrich; host or cells: human erythrocytes
T2 sequence (P22303 32-617 isoform P22303-2 limits assumed): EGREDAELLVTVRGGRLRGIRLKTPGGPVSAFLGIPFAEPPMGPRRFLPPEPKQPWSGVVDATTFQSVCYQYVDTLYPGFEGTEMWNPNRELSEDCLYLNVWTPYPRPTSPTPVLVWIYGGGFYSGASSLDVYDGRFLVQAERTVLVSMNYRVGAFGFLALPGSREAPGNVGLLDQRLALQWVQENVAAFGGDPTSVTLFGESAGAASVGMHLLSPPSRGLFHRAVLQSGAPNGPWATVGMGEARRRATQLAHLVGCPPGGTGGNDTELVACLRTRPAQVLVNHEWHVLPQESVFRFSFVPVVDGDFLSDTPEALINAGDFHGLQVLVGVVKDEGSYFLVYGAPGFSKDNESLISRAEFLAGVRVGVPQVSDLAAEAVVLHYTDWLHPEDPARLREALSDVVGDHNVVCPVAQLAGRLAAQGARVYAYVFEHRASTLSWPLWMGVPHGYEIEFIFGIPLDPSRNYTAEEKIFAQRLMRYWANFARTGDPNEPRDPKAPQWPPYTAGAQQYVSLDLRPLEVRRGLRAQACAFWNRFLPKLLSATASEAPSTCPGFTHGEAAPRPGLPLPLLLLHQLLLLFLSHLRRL

T1 sequence (P81908 whole entry): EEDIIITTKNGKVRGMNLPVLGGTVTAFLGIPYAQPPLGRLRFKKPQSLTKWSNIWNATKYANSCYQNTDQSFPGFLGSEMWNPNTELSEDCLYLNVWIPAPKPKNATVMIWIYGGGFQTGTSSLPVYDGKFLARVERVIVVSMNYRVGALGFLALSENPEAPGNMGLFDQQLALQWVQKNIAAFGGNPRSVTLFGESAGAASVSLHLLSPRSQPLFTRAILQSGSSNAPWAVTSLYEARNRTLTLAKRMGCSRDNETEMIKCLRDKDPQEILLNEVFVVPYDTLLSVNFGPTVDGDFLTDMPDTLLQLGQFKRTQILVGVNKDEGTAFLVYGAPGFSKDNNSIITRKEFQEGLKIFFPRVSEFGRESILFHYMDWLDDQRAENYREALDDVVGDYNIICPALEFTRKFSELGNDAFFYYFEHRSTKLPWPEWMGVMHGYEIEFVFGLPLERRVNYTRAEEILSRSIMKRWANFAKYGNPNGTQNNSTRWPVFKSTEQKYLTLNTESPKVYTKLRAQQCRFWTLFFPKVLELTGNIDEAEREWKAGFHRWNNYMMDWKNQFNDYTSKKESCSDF

| Compound | IC50 ([1]; IC50 eqBuChE) | IC50 ([2]; IC50 hAChE) | other results |
| --- | --- | --- | --- |
| Saligenin cresyl phosphate [Compound J] | – | – | IC50 eqBuChE [1]: 0.7 mg/L |
| Cc1cccc(OP(=O)(Oc2cccc(C)c2)Oc2cccc(C)c2)c1 [Compound C, Tri(meta-cresyl)phosphate] | 6.24 µM | 25.2 µM | – |
| Cc1ccccc1OP(=O)(Oc1ccccc1C)Oc1ccccc1C [Compound B, Tri(ortho-cresyl)phosphate] | 10 µM | 40.7 µM | – |
| CCCCC(CC)COP(=O)(Oc1ccccc1)Oc1ccccc1 (stereo not drawn) [Compound A, 2-ethylhexyl diphenylphosphate] | 1.93 µM | 35 µM | – |
| O=P(Oc1ccccc1)(Oc1ccccc1)Oc1ccc(Oc2ccc(OP(=O)(Oc3ccccc3)Oc3ccccc3)cc2)cc1 [Compound 4, 4,4′-dihydroxydiphenylether bis(diphenylphosphate)] | 118 µM | 33.9 µM | – |
| O=P(Oc1ccccc1)(Oc1ccccc1)Oc1ccc(-c2ccc(OP(=O)(Oc3ccccc3)Oc3ccccc3)cc2)cc1 [Compound 2, 4,4′-dihydroxybiphenyl bis(diphenylphosphate)] | 155 µM and 244 µM | 38.4 µM and 128 µM | – |
| CCCCC(CC)(COP(=O)(Oc1ccccc1)Oc1ccccc1)COP(=O)(Oc1ccccc1)Oc1ccccc1 [Compound 6, 2-butyl-2-ethyl-1,3-propanediol bis(diphenylphosphate)] | 93.7 µM | 26.3 µM | – |
| O=P(Oc1ccccc1)(Oc1ccccc1)Oc1cc(OP(=O)(Oc2ccccc2)Oc2ccccc2)cc(OP(=O)(Oc2ccccc2)Oc2ccccc2)c1 [Compound 5, 1,3,5-phloroglucinol tris(bis(diphenylphosphate))] | 100 µM | – | – |
| CC(C)(C)c1ccc(OP(=O)(Oc2ccccc2)Oc2ccc(C(C)(C)C)cc2)cc1 [Compound H, di(p-tertbutylphenyl)phenylphosphate] | 280 µM | 27.6 µM | – |
| CC(C)(C)c1ccc(OP(=O)(Oc2ccc(C(C)(C)C)cc2)Oc2ccc(C(C)(C)C)cc2)cc1 [Compound I, Tri(p-tert-butylphenyl)phosphate] | 194 µM | 17 µM | action on butyrylcholinesterase, in words [1]: reduced inhibition; action on acetylcholinesterase, in words [2]: active |
| NP(=O)(Oc1ccccc1)Oc1ccccc1 [Compound K, Diphenyl phosphoroamidate] | – | – | IC50 [1]: 136 µM; IC50 [2]: 38.1 µM |
| Tricresyl phosphate [Compound P] | – | – | IC50 eqBuChE [1]: 0.7 mg/L; IC50 hAChE [2]: 16.9 mg/L |
| O=P(Oc1ccccc1)(Oc1ccccc1)Oc1ccc(Sc2ccc(OP(=O)(Oc3ccccc3)Oc3ccccc3)cc2)cc1 [Compound 3, 4,4′-dihydroxydiphenylthioether bis(diphenylphosphate)] | 166 µM | 34 µM | – |
| O=P(Oc1c(F)cccc1F)(Oc1c(F)cccc1F)Oc1c(F)cccc1F [Compound F, Tri(2,6-difluorophenyl)phosphate] | 20 µM | 12.9 µM | – |
| O=P(Oc1ccccc1)(Oc1ccccc1)Oc1ccc(OP(=O)(Oc2ccccc2)Oc2ccccc2)cc1 [Compound 1, Hydroquinone bis(diphenylphosphate)] | 186 µM | 42 µM | – |
| O=P(OCCCl)(OCCCl)OCCCl [Compound N, tris(chloroethyl)phosphate] | 315 µM | 28.7 µM | – |
| Cc1ccc(OP(=O)(Oc2ccc(C)cc2)Oc2ccc(C)cc2)cc1 [Compound D, Tri(para-cresyl)phosphate] | 116 µM | 26.3 µM | – |
| CCC(COP(=O)(Oc1ccccc1)Oc1ccccc1)(COP(=O)(Oc1ccccc1)Oc1ccccc1)COP(=O)(Oc1ccccc1)Oc1ccccc1 [Compound 7, trimethylolpropane tris(diphenylphosphate)] | 145 µM | 22 µM | – |
